Test results taken from patent publication US8501804B2, “Bicyclic compound” (Takeda Pharmaceutical Company Limited, priority 2008, dated 2013).

Columns and labels:
human ACC2 (Nd) = target: T1, human ACC2 (Nd) (Homo sapiens, UniProt O00763); test: ACC2 inhibitory activity (malachite green); assay type: biochemical; details: test compound 10 μM; for inhibition at 10 µM: read-out: ACC2 10 μM inhibitory rate (%)
T1 construct: His6 (from vector pFAST-BacHTa); made in house; host or cells: SF-9 insect cells, recombinant baculovirus BAC-ACC2 (Nd)
T1 sequence (O00763 117-2458 limits assumed): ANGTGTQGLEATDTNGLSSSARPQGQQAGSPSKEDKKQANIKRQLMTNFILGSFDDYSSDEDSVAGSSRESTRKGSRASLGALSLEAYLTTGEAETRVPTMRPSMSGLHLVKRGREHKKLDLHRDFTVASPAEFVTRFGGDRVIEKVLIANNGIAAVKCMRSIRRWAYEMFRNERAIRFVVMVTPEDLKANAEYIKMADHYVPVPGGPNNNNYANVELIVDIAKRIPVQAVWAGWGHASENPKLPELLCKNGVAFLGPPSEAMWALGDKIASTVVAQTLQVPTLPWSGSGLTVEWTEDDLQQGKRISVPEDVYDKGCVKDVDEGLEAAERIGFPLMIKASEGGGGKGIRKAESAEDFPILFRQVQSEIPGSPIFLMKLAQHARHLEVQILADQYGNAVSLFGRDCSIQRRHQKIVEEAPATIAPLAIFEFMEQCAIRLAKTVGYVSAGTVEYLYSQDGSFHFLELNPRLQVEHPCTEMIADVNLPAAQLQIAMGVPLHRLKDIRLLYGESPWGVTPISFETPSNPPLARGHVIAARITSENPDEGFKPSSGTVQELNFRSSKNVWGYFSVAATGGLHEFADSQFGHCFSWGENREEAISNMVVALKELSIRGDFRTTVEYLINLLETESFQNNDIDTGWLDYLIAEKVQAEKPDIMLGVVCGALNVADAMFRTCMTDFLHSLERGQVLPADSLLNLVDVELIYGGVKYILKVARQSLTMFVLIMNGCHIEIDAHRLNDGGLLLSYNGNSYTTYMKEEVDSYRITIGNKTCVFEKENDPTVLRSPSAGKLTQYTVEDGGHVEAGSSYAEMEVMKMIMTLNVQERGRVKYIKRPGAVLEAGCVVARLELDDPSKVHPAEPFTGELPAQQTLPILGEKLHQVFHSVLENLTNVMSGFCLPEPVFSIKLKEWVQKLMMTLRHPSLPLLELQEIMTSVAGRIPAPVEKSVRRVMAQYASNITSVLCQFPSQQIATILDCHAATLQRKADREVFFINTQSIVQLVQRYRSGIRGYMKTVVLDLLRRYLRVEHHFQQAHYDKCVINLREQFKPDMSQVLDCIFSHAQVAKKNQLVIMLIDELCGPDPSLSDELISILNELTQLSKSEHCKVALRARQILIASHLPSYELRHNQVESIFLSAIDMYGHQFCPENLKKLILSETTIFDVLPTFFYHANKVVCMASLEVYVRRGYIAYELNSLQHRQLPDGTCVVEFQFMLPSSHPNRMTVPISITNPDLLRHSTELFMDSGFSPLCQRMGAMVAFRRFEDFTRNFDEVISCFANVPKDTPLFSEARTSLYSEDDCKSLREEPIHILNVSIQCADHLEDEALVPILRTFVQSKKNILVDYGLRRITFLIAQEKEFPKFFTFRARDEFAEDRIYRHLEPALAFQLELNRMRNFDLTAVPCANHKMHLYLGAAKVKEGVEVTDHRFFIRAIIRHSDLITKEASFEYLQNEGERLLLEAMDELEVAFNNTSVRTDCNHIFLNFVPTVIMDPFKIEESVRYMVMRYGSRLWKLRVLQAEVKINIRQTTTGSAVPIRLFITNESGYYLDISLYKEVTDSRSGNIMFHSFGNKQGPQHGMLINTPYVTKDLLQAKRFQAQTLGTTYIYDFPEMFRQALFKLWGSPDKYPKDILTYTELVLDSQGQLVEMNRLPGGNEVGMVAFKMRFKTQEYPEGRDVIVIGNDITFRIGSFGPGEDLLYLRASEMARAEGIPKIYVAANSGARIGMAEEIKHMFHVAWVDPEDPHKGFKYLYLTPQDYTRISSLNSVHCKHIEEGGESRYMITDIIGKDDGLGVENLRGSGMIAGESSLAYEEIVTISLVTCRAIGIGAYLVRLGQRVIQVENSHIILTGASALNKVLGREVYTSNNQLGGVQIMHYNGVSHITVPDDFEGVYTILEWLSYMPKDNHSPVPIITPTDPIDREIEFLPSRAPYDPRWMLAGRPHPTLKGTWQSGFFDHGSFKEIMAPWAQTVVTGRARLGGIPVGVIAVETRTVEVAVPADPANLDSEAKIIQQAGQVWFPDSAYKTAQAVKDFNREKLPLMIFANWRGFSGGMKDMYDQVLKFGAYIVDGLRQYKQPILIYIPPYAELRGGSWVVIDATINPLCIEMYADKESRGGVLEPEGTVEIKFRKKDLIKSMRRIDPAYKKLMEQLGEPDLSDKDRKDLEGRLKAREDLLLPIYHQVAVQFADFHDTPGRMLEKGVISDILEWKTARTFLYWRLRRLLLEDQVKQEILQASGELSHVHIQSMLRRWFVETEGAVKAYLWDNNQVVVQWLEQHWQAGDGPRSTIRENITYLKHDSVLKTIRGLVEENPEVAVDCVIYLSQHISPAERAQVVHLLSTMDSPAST
Description: The ACC2 inhibitory action of the compound of the present invention was evaluated by the following method.
(1) Cloning of Human ACC2 Gene and Preparation of Recombinant Baculovirus
(§1) Human ACC2 gene was cloned by PCR using a human skeletal muscle cDNA library (Clontech) as a template and Primer 1 and Primer 2 shown below. Primer 1 and Primer 2 were prepared by adding SalI, XbaI restriction enzyme recognition sequences based on the information of the base sequence of human ACC2 gene (Genbank Accession U89344).
(§2) PCR was performed using Pyrobest DNA polymerase (TAKARA BIO INC.). The obtained PCR product was cloned to pT7 Blue vector (Novagen) and, after confirmation of the base sequence, digested with restriction enzymes SalI and XbaI. The obtained DNA fragment was inserted into pFAST-BacHTa (Invitrogen) digested with restriction enzymes SalI and XbaI to give expression plasmid ACC2/pFAST-BacHTa.
A plasmid for expression of ACC2 without a mitochondrial targeting sequence was prepared by PCR using the expression plasmid as a template, and Primer 3 (SalI restriction enzyme recognition sequence was added) and Primer 4 prepared by reference to the information of human ACC2 gene base sequence (Genbank Accession U89344).
as §2, with “Pyrobest-DNA” for “Pyrobest DNA”, “AflII.” for “XbaI.”, “ACC2/pFAST-BacHTa” for “pFAST-BacHTa (Invitrogen)”, “AflII” for “XbaI”, “ACC2mito7/pFAST-BacHTa.” for “ACC2/pFAST-BacHTa.”
Using the expression plasmid ACC2mito7/pFAST-BacHTa and BAC-TO-BAC Baculovirus Expression System (Invitrogen), virus stock BAC-ACC2 of recombinant Baculovirus (N terminal deleted (hereinafter Nd)) was prepared.
(2) Preparation of ACC2 (Nd) Protein
SF-9 cells (Invitrogen) were inoculated to a medium (2 L) for insect cells (Sf-900IISFM medium (Invitrogen) containing 10% fetal bovine serum (Trace), 50 mg/L Gentamicin (Invitrogen), 0.1% Pluronic F-68 (Invitrogen)) at 0.5×10^6 cells/mL, and cultured with shaking in Wave Bioreactor (Wave) at 27° C., 20 rpm, rocking angle 6°, oxygen concentration 30%.
On day 4 of the culture, 3 L of the medium for insect cells was added, the rocking angle was set to 8°, and the cells were cultured. On day 5 of the culture, 100 ml of recombinant Baculovirus BAC-ACC2 (Nd) was added, 5 L of the medium for insect cells was further added, the rocking angle was set to 11°, and the cells were cultured for 3 days. The culture medium was centrifuged at 1000×g for 10 min to give virus-infected cells. The cells were washed with phosphate buffered saline (Invitrogen) and centrifuged under the same conditions. The obtained cells were cryopreserved at −80° C.
The cryopreserved cells were thawed in ice and suspended in 900 ml of 25 mM HEPES buffer (pH 7.5) containing 10% Glycerol, 0.13 M NaCl, 1 mM EDTA, 25 mM Sodium β-Glycerophosphate and 1 mM Sodium Orthovanadate, and supplemented with Complete Protease Inhibitor (Nippon Boehringer Ingelheim Co., Ltd.). The obtained suspension was homogenized three times in a polytron homogenizer (Kinematica) at 20,000 rpm for 30 sec. The obtained cell disruption solution was clarified by centrifugation at 31000×g for 60 min, and filtered through a 0.45 μm filter. The filtrate was passed through a column packed with 60 mL of Ni-NTA Super Flow Gel (QUIAGEN) at a flow rate of about 5 mL/min. The column was washed with buffer A (50 mM HEPES (pH 7.5) containing 0.3 M NaCl), further washed with buffer A containing 20 mM Imidazole, and eluted with buffer A containing 100 mM Imidazole. The eluate was concentrated with Vivaspin 20 (Vivascience) with a molecular weight cut off of 30K. The obtained concentrate was dialyzed against 50 mM HEPES (pH 7.5) containing 10 mM MgCl2, 2 mM Dithiothreitol, 10 mM Tripotassium Citrate and 0.3 M NaCl. The inner dialysate was filtered through a 0.22 μm filter to give ACC2 (Nd). […]

human ACC1 = target: T2, human ACC1 (Homo sapiens, UniProt Q13085); test: ACC1 inhibitory activity (malachite green); assay type: biochemical; details: test compound 10 μM; for inhibition at 10 µM: read-out: ACC1 10 μM inhibitory rate (%)
T2 construct: His6 (from vector pFAST-BacHTc); made in house; host or cells: SF-9 insect cells, recombinant baculovirus BAC-ACC1
Description: The ACC1 inhibitory action of the compound of the present invention was evaluated by the following method.
(1) Cloning of Human ACC1 Gene and Preparation of Recombinant Baculovirus
as §1, with “ACC1” for “ACC2”, “liver” for “skeletal muscle”, “NotI” for “XbaI”, “U19822).” for “U89344).”
as §2, with “NotI.” for “XbaI.”, “pFAST-BacHTc” for “pFAST-BacHTa”, “NotI” for “XbaI”, “ACC1/pFAST-BacHTc.” for “ACC2/pFAST-BacHTa.”
Using the expression plasmid ACC1/pFAST-BacHTc and BAC-TO-BAC Baculovirus Expression System (Invitrogen), virus stock BAC-ACC1 of recombinant Baculovirus was prepared.
(2) Preparation of ACC1 Protein
SF-9 cells (Invitrogen) were inoculated to a medium (1 L) for insect cells (Sf-900IISFM medium (Invitrogen) containing 10% fetal bovine serum (Trace), 50 mg/L Gentamicin (Invitrogen), 0.1% Pluronic F-68 (Invitrogen)) at 1×10^6 cells/mL, and cultured with shaking in 2 L meyer at 27° C., 100 rpm.
After 24 hr of the culture, 10 mL of recombinant Baculovirus BAC-ACC1 was added, and the cells were cultured for 3 days. The culture medium was centrifuged at 1000×g for 5 min to give virus-infected cells. The cells were washed with phosphate buffered saline (Invitrogen) and centrifuged under the same conditions. The obtained cells were cryopreserved at −80° C.
The cryopreserved cells were thawed in ice and suspended in 100 mL of 25 mM HEPES buffer (pH 7.5) containing 10% Glycerol, 0.13 M NaCl, 1 mM EDTA, 25 mM Sodium […] and 1 mM Sodium Orthovanadate, and supplemented with Complete Protease Inhibitor (Nippon Boehringer Ingelheim Co., Ltd.). The obtained suspension was homogenized three times in a polytron homogenizer (Kinematica) at 20,000 rpm for 30 sec. The obtained cell disruption solution was clarified by centrifugation at 185700×g for 50 min, and filtered through a 0.45 μm filter. The filtrate was passed through a column packed with 12 ml of Ni-NTA Super Flow Gel (QUIAGEN) at a flow rate of about 5 mL/min. The column was washed with buffer A (50 mM HEPES (pH 7.5) containing 0.3 M NaCl), further washed with buffer A containing 20 mM Imidazole, and eluted with buffer A containing 100 mM Imidazole. The eluate was concentrated with Vivaspin 20 (Vivascience) with a molecular weight cut off of 30K. The obtained concentrate was dialyzed against Sephadex G-25 (Amersham Biosciences, 358 mL) equilibrated with 50 mM HEPES (pH 7.5) containing 10 mM MgCl2, 2 mM Dithiothreitol, 10 mM Tripotassium Citrate and 0.3 M NaCl. The inner dialysate was concentrated with Vivaspin 20 (Vivascience) with molecular weight cut off of 30K, and concentrate was filtered through a 0.22 μm filter to give ACC1. The obtained ACC1 was cryopreserved at −80° C.
(3) Measurement of ACC1 Inhibitory Activity
ACC1 (0.93 mg/ml) obtained in the above-mentioned (2) was diluted with an enzyme reaction buffer (50 mM HEPES (pH 7.5), 10 mM MgCl2, 10 mM Tripotassium Citrate, 2 mM Dithiothreitol, 0.75 mg/ml Fatty acid free BSA) to a concentration of 8 μg/ml, and the mixture was added to each well of a 384 well assay plate (Nunc 265196) by 10 μl. A test compound was dissolved in dimethyl sulfoxide (DMSO) and the mixture was diluted with an enzyme reaction buffer and the resulting solution (5 μl) was added to each well. The mixture was incubated at 30° C. for 60 min. Then, a substrate solution (50 mM KHCO3, 200 μM ATP, 200 μM Acetyl-CoA, 5 μl) was added to each well, and the mixture was reacted at 30° C. for 20 min (test compound addition group). […]

Row | Compound | inhibition at 10 µM (human ACC2 (Nd)) [%] | inhibition at 10 µM (human ACC1) [%] | ACC2 10 μM inhibitory rate (%) (human ACC2 (Nd)) | ACC1 10 μM inhibitory rate (%) (human ACC1)
1 | CC(=O)NC(C)c1cc2cc(OCc3ccc(OCC4CC4)cc3Cl)ccc2o1 (centres unmarked) [Example 134 (retention time longer), N-[1-(5-{[2-chloro-4-(cyclopropylmethoxy)benzyl]oxy}-1-benzofuran-2-yl)ethyl]acetamide] | 55 | 33 |  | 
2 | CCOc1ccc(CCc2cc3oc(C(C)NC(C)=O)cc3cn2)cc1 (centres unmarked) [Example 135, N-(1-{6-[2-(4-ethoxyphenyl)ethyl]furo[3,2-c]pyridin-2-yl}ethyl)acetamide] | 81 | 14 |  | 
3 | CC(=O)NC(C)c1cc2ccc(C#Cc3ccc(OCC4CC4)nc3)cc2o1 (centres unmarked) [Example 138, N-[1-(6-{[6-(cyclopropylmethoxy)pyridin-3-yl]ethynyl}-1-benzofuran-2-yl)ethyl]acetamide] | 70 | 22 |  | 
4 | CC(=O)N[C@@H](C)[C@@H]1Cc2ccc(C#Cc3ccc(OCC4CC4)nc3)cc2O1 [Example 139, N-{(1S)-1-[(2S)-6-{[6-(cyclopropylmethoxy)pyridin-3-yl]ethynyl}-2,3-dihydro-1-benzofuran-2-yl]ethyl}acetamide] | 100 | 37 |  | 
5 | CC(=O)NC(C)C1Cc2cc(OCc3ccc(OCC4CC4)cc3F)ccc2O1 (centres unmarked) [Example 140, N-[1-(5-{[4-(cyclopropylmethoxy)-2-fluorobenzyl]oxy}-2,3-dihydro-1-benzofuran-2-yl)ethyl]acetamide] |  |  | 66 | 20
6 | CC(=O)NC(C)C1Cc2cc(OCc3ccc(OCC4CC4)cc3F)ccc2O1 (centres unmarked) [Example 141 (retention time shorter), N-[1-(5-{[4-(cyclopropylmethoxy)-2-fluorobenzyl]oxy}-2,3-dihydro-1-benzofuran-2-yl)ethyl]acetamide] |  |  | 95 | 41
7 | CC(=O)N[C@@H](C)[C@@H]1Cc2ccc(OCc3cnc(OCC4CC4)cc3F)cc2O1 [Example 142, N-{(1S)-1-[(2S)-6-{[6-(cyclopropylmethoxy)-4-fluoropyridin-3-yl]methoxy}-2,3-dihydro-1-benzofuran-2-yl]ethyl}acetamide] | 74 | 42 |  | 
8 | CC(=O)N[C@@H](C)[C@@H]1Cc2ccc(OCc3ccc(OCC4CC4)nc3F)cc2O1 [Example 143, N-{(1S)-1-[(2S)-6-{[6-(cyclopropylmethoxy)-2-fluoropyridin-3-yl]methoxy}-2,3-dihydro-1-benzofuran-2-yl]ethyl}acetamide] | 73 | 8 |  | 
9 | CC(=O)N[C@@H](C)[C@@H]1Cc2ccc(OCc3ccc(OCC4CC4)cc3)cc2O1 [Example 144, N-{(1S)-1-[(2S)-6-{[4-(cyclopropylmethoxy)benzyl]oxy}-2,3-dihydro-1-benzofuran-2-yl]ethyl}acetamide] | 88 | 48 |  | 
10 | CC(=O)N[C@@H](C)[C@@H]1Cc2ccc(OCc3ccc(OCC4CC4)cc3F)cc2O1 [Example 145, N-{(1S)-1-[(2S)-6-{[4-(cyclopropylmethoxy)-2-fluorobenzyl]oxy}-2,3-dihydro-1-benzofuran-2-yl]ethyl}acetamide] | 88 | 42 |  | 
11 | CC(=O)N[C@@H](C)[C@@H]1Cc2ccc(OCc3ccc(OC[C@@H]4CCCO4)cc3F)cc2O1 [Example 146, N-{(1S)-1-[(2S)-6-({2-fluoro-4-[(2S)-tetrahydrofuran-2-ylmethoxy]benzyl}oxy)-2,3-dihydro-1-benzofuran-2-yl]ethyl}acetamide] | 84 | 40 |  | 
12 | CC(=O)NC(C)c1cc2ccc(CCc3ccc(OCC4CC4)cc3)cc2o1 (centres unmarked) [Example 150, N-[1-(6-{2-[4-(cyclopropylmethoxy)phenyl]ethyl}-1-benzofuran-2-yl)ethyl]acetamide] | 81 | 27 |  | 
13 | CC(=O)NC(C)c1cc2ccc(CCc3ccc4c(c3)C(C)(C)CO4)cc2o1 (centres unmarked) [Example 152, N-(1-{6-[2-(3,3-dimethyl-2,3-dihydro-1-benzofuran-5-yl)ethyl]-1-benzofuran-2-yl}ethyl)acetamide] | 78 | 39 |  | 
